Laboratory results taken from PMC11050599, “Novel Tetracyclic Azaphenothiazines with the Quinoline Ring as New Anticancer and Antibacterial Derivatives of Chlorpromazine” (International Journal of Molecular Sciences, 2024).
Converted amounts (≈) assume the structure as drawn.

Tests used:
A549 (lung cancer) = assay: MTT assay, A549 cells; format: cell-based, human; conditions: for IC50: Homo sapiens, A549, MTT, 72 h, mean SD, read-out: IC50 A549
Outline: (§1)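 After a 72 h incubation of 1 × 10^4 cells per well with compound, absorbance from MTT reduction was converted to percent of the medium-only control.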

[1] = tested on: MDA-MB-231 (breast cancer); assay: MTT assay, MDA-MB-231 cells; format: cell-based, human; conditions: for IC50: Homo sapiens, MDA-MB-231, MTT, 72 h, MDA-MB231, read-out: IC50 MDA; for SI MDA: SI = IC50 for normal cell line (HaCaT)/IC50 cancer cell line
Outline: as §1

[2] = tested on: HaCaT (immortalized human keratinocytes); assay: MTT assay, HaCaT normal cells; format: cell-based; conditions: Homo sapiens, HaCaT; MTT, 72 h, normal cells; read-out: IC50 HaCaT (Table 3)
Outline: as §1

[3] = tested on: MiaPaCa-2 (pancreas cancer); assay: MTT assay, MiaPaCa-2 cells; format: cell-based, human; conditions: for IC50: Homo sapiens, MIA PaCa-2, MTT, 72 h, read-out: IC50 MiaPaCa-2
Method: (§2) The human cell lines, such as A549 (lung cancer), MDA-MB-231 (breast cancer), MiaPaca-2 (pancreatic cancer), PC3 (metastatic prostate cancer), HCT-116 (colon carcinoma), and HaCaT (immortalized keratinocytes), were sourced from the American Type Culture Collection (ATCC) in Rockville, USA. Culturing conditions varied as follows: HCT116 cells were cultured in MEM (ThermoSci, Waltham, MA, USA), A549, MDA-MB-231, MiaPaca, HaCaT cells in DMEM High Glucose and PC3 cells were cultured in RPMI (Biowest SAS, Nuaillé, France). The growth medium consisted of 10% fetal bovine serum (FBS, Sigma-Aldrich, St. Louis, MO, USA), 20 mM HEPES (Biowest, Nuaillé, France), and antibiotics (100 U/mL of penicillin and 100 μg/mL of streptomycin) from Gibco, Grand Island, NY, USA. […] These compounds were added to 96-well plates containing study cells (1 × 10^4 cells per well) and incubated for 72 h. […] Cell absorbance results were incorporated into the formula for calculating the relative MTT level (%), enabling the assessment of cell viability following exposure to the test compounds. The cell viability percentage represents the MTT reduction in cells treated with the test compounds compared to the control sample, where only the medium was added to the cells.

PC3 (prostate cancer) = assay: MTT assay, PC3 cells; format: cell-based, human; conditions: for IC50: Homo sapiens, PC-3, MTT, 72 h, read-out: IC50 PC3; for SI PC3: SI = IC50 for normal cell line (HaCaT)/IC50 cancer cell line
Method: as §2

HCT116 (colon cancer) = assay: MTT assay, HCT116 cells; format: cell-based, human; conditions: for IC50: Homo sapiens, HCT-116, MTT, 72 h, read-out: IC50 HCT116; for SI HCT116: SI = IC50 for normal cell line (HaCaT)/IC50 cancer cell line
Method: as §2

cancer cell lines = assay: MTT assay, summary over several cell lines; format: cell-based, human
Method: as §2

E. coli ATCC 25922 = assay: MIC broth microdilution; format: cell-based; conditions: Escherichia coli, ATCC25922; 19 h, 35 °C; read-out: MIC E. coli ATCC 25922
Outline: (§3)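 Two-fold serial broth microdilution in Mueller-Hinton II broth, final inoculum adjusted to […]. Compounds dissolved in DMSO, final solvent at most 1%.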

P. aeruginosa ATCC 15442 = assay: MIC broth microdilution; format: cell-based; conditions: Pseudomonas aeruginosa, ATCC15442; 19 h, 35 °C; read-out: MIC P. aeruginosa ATCC 15442
Outline: as §3

S. aureus ATCC 25923 = assay: MIC broth microdilution; format: cell-based; conditions: Staphylococcus aureus, ATCC25923; 19 h, 35 °C; read-out: MIC S. aureus ATCC 25923
Outline: as §3

S. aureus ATCC 29213 = assay: MIC broth microdilution; format: cell-based; conditions: Staphylococcus aureus, ATCC29213; 19 h, 35 °C; read-out: MIC S. aureus ATCC 29213
Outline: as §3

S. aureus ATCC 6538 = assay: MIC broth microdilution; format: cell-based; conditions: Staphylococcus aureus, ATCC6538; 19 h, 35 °C; read-out: MIC S. aureus ATCC 6538
Outline: as §3

S. aureus NCTC 4163 = assay: MIC broth microdilution; format: cell-based; conditions: Staphylococcus aureus, NCTC4163; 19 h, 35 °C; read-out: MIC S. aureus NCTC 4163
Outline: as §3

[4] = tested on: S. epidermidis ATCC 12228; assay: MIC broth microdilution; format: cell-based; conditions: Staphylococcus epidermidis, ATCC12228; 19 h, 35 °C; read-out: MIC S. epidermidis ATCC 12228
Outline: as §3

[5] = tested on: S. epidermidis ATCC 35984; assay: MIC broth microdilution; format: cell-based; conditions: Staphylococcus epidermidis, ATCC35984; 19 h, 35 °C; read-out: MIC S. epidermidis ATCC 35984
Outline: as §3

MiaPaCa-2 cells = assay: Annexin V-FITC/PI apoptosis flow cytometry, MiaPaCa-2; format: cell-based, human
Method: To analyze the number of cells in early apoptosis, late apoptosis, or necrosis, A549, MiaPaca-2, and HCT-116 cell lines were cultured in 6-well plates with a seeding density of 1 × 10^5 cells per well. These cells were then treated with selected compounds (4, 5, and 8) at their respective IC50 concentrations and incubated for 72 h. Subsequently, a commercially available kit, the FITC: Annexin V Apoptosis Detection Kit I from BD Biosciences Pharmingen in San Jose, CA, USA, was utilized to assess apoptosis. After 72 h the cells were harvested, washed, and labeled with Annexin V-FITC and propidium iodide (PI) following the manufacturer’s protocol (Becton Dickinson), as previously described. The stained cells were analyzed by flow cytometry. The cells were identified as early apoptotic (Annexin V+/PI−) or late apoptotic/necrotic (Annexin V+/PI+).

[6] = SI = IC50 for normal cell line (HaCaT)/IC50 cancer cell line
[7] = representative dot plot, Figure 4B, IC50, 72 h

IC50 (A549 (lung cancer)) | IC50 [1] | IC50 [3] | IC50 (PC3 (prostate cancer)) | IC50 (HCT116 (colon cancer)) | SMILES | SI MDA [1] | IC50 [2] | SI PC3 (PC3 (prostate cancer)) | SI HCT116 (HCT116 (colon cancer)) | also measured
0.6 ± 0.2 µM | 0.8 ± 0.1 µM | 0.6 ± 0.2 µM | 0.8 ± 0.1 µM | 0.59 ± 0.02 µM | COc1cccc2c1C(=O)c1c(O)c3c(c(O)c1C2=O)C[C@@](O)(C(=O)CO)C[C@@H]3O[C@H]1C[C@H](N)[C@H](O)[C@H](C)O1 [DX, doxorubicin, reference compound] | 0.15 | 0.3 ± 0.1 µM | 0.15 | 0.5 | selectivity index (SI) range (cancer cell lines; A549 and MDA-MB-231 versus HaCaT): 0.14–0.15
14.9 ± 2.7 µM | 76.5 ± 0.8 µM | 11.1 ± 0.4 µM | 76.5 ± 8.1 µM | 33.5 ± 6.8 µM | Clc1ccc2c(c1)Nc1nc3ccccc3cc1S2 [Compound 5, 6H-8-chloroquino[3,2-b]benzo[1,4]thiazine] | 0.7 | 56.5 ± 4.5 µM | 0.7 | 1.7 | SI A549 (A549 (lung cancer); [6]): 3.8; SI MiaPaCa-2 [3, 6]: 5.0; MIC (E. coli ATCC 25922): 256 µg/mL (≈ 899 µM); MIC (P. aeruginosa ATCC 15442): 256 µg/mL (≈ 899 µM); MIC (S. aureus ATCC 25923): 8 µg/mL (≈ 28.1 µM); MIC (S. aureus ATCC 29213): 8 µg/mL (≈ 28.1 µM); MIC (S. aureus ATCC 6538): 8 µg/mL (≈ 28.1 µM); MIC (S. aureus NCTC 4163): 8 µg/mL (≈ 28.1 µM); MIC [4]: 8 µg/mL (≈ 28.1 µM); MIC [5]: 8 µg/mL (≈ 28.1 µM); IC50 (cancer cell lines; Homo sapiens, range over two cell lines not given, read-out: IC50 range against two tested cell lines): 11.1 to 14.9 µM; cells in early apoptosis, MiaPaCa-2 (MiaPaCa-2 cells; compound at IC50, 72 h): 4.56%; cells in late apoptosis/necrosis, MiaPaCa-2 (MiaPaCa-2 cells; compound at IC50, 72 h): 23%; MiaPaca: Alive (MiaPaCa-2 cells; [7]): 72.68%; MiaPaca: Early Apoptotic (MiaPaCa-2 cells; [7]): 4.56%; MiaPaca: Necrotic (MiaPaCa-2 cells; [7]): 9.46%; MiaPaca: Necrotic/Late Apoptotic (MiaPaCa-2 cells; [7]): 13.29%
